In ChEMBL document CHEMBL1201862, “PubChem BioAssay data set” (2004):
The source made the active and inactive calls.

Columns and labels:
Estrogen receptor beta = Estrogen receptor beta (Homo sapiens, UniProt Q92731);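 also: recombinant ER-beta bound to coactivator SRC1 peptide in presence of estradiol agonist; inhibitors block coactivator peptide binding and lower the FRET signal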
[1] = microbe, parasite or virus in culture; format: functional; conditions: Mycobacterium tuberculosis
[2] = A549 cell cytotoxicity, dose response, cytotoxicity control, plate reader, cherry-pick, antagonist series (AID 743412); format: functional, cell-based
[3] = Luminescence Cell-Based Dose Response HTS to Identify Inhibitors of 5'UTR Stem-Loop Driven Prion Protein mRNA Translation in H4 Neuroglioblastoma Cells. [Related pubchem assays: 1827 (Project Summary), 1813 (Primary HTS)]; format: functional
[4] = alpha-synuclein stem-loop luciferase translation blockers – H4 neuroglioma cells, luminescence, confirmation (AID 1988); format: functional, cell-based
[5] = toxicity toward HepG2 liver cells – cell-based, plate reader, cherry-pick, antagonist series, cytotoxicity control, dose response (AID 743416); format: functional
[6] = blockade of melanocortin 4 receptor signaling – cell-based, plate reader, cherry pick, counter-screen for LGR2 antagonist project, dose response (AID 743444); format: functional;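 also: transfected HEK 293 cells stimulated with alpha-MSH peptide; potency of inhibitors of the alpha-MSH evoked signal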
[7] = blockers of bursicon-stimulated LGR2 cAMP reporter – cell-based, HEK293, CRE-luciferase reporter, cherry pick, set 2, dose response (AID 743343); format: functional;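 also: transfected cells were stimulated with diluted bursicon conditioned medium after compound addition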
[8] = target: T1, High affinity choline transporter 1 (Homo sapiens, UniProt Q9GZV3); test: human choline transporter blockers, potency – cell-based, 5-point CRC, membrane potential dye, dose response (AID 504840); format: functional
T1 sequence (Q9GZV3 whole entry): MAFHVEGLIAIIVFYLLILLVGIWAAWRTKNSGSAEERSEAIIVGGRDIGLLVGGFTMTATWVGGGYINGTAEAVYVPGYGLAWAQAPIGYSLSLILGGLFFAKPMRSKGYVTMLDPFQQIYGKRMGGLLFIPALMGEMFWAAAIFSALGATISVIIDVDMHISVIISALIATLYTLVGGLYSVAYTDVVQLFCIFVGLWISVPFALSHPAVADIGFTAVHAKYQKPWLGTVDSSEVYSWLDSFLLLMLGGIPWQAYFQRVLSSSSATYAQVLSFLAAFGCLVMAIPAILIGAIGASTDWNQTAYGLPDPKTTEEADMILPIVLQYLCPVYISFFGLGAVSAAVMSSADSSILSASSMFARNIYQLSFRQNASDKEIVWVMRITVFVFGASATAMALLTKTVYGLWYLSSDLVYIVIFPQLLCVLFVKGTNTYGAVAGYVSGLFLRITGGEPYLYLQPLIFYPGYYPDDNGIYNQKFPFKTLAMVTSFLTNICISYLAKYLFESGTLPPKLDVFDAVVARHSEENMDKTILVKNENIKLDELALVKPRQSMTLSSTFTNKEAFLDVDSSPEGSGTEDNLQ

[9] = target: Glyceraldehyde-3-phosphate dehydrogenase (Homo sapiens, UniProt P04406)
Chain of Glyceraldehyde-3-phosphate dehydrogenase (P04406 whole entry): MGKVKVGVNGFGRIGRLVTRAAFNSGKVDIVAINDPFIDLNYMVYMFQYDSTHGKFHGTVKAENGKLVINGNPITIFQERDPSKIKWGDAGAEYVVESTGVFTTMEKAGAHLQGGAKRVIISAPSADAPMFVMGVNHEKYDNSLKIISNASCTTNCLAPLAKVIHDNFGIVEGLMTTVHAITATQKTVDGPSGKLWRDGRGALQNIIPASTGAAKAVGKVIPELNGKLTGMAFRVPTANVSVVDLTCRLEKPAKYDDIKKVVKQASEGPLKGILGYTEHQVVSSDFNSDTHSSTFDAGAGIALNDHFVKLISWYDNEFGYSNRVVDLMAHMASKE

[10] = viability loss in HeLa cells – cytotoxicity control for MgcRacGAP inhibitor project, dose response (AID 624300); format: functional
[11] = target: T2, Rac GTPase-activating protein 1 (Homo sapiens, UniProt Q9H0H5); test: blockers of MgcRacGAP-driven Rac1 GTP hydrolysis – biochemical, ADP Hunter fluorescence, primary and confirmatory, confirmation (AID 624330); format: functional
T2 sequence (Q9H0H5 whole entry): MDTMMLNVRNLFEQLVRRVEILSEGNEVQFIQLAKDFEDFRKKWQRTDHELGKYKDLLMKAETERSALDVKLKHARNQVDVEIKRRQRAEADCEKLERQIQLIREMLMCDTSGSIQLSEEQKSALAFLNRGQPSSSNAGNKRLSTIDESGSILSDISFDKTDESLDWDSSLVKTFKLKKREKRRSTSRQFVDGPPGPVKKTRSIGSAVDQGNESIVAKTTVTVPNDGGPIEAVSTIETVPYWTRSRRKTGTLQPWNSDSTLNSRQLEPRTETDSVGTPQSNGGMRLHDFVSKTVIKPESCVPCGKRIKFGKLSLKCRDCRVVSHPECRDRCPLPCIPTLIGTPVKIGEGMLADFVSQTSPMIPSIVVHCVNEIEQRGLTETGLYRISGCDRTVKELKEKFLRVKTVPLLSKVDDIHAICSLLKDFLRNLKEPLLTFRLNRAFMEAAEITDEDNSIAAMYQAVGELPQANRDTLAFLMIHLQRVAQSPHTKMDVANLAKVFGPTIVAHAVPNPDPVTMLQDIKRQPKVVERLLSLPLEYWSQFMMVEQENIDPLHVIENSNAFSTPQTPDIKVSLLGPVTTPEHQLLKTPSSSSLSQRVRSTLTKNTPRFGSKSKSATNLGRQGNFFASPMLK

[12] = Luminescence Cell-Based Dose Retest to Confirm Inhibitors of Cancer Stem Cells. [Related pubchem assays (depositor defined):AID2717, AID2721]; format: functional; conditions: Homo sapiens
SN12K1 = test: cells; format: functional; conditions: Homo sapiens
P388/ADR = test: cells; format: functional; conditions: Mus musculus
[13] = HIV-1 AD8 envelope cell-cell fusion blockers – cherry-pick, dose response (AID 652062); format: functional, cell-based;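 also: luciferase signal from cell-cell fusion driven by HIV-1 clade B AD8 Env; potency is for inhibitors of fusion seen as a drop in luminescence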
[14] = viability of HCT116 lacking mutant beta-catenin – cell-based, human colon tumor, dose response (AID 1045); format: functional;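 also: HCT116 colon tumor cells with beta catenin knocked out; cells exposed to compound for 60 hours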
[15] = tested on: Streptococcus sp. 'group A'; test: Streptococcus pyogenes SK(-)GAS viability under kanamycin – luminescence, BacTiterGlo, confirmation, counter-screen for streptokinase expression inhibitor project, dose response (AID 1900); format: functional, organism-based
Streptococcus = test: GAS UMAA2166 growth inhibition – luminescence, BacTiterGlo, counter-screen for streptokinase expression inhibitor project, dose response (AID 1915); format: functional, organism-based;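 also: potency for reduction of bacterial viability or growth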
Streptokinase A = target: T3, Streptokinase A (Streptococcus pyogenes serotype M1, UniProt P10520); test: viability-normalized secreted streptokinase activity reduction – plasminogen activation absorbance, OD405, dose response (AID 1914); format: functional, Streptococcus pyogenes M1 GAS;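 also: secreted streptokinase activity via plasminogen activation per viability signal from cell pellet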
T3 sequence (P10520 whole entry): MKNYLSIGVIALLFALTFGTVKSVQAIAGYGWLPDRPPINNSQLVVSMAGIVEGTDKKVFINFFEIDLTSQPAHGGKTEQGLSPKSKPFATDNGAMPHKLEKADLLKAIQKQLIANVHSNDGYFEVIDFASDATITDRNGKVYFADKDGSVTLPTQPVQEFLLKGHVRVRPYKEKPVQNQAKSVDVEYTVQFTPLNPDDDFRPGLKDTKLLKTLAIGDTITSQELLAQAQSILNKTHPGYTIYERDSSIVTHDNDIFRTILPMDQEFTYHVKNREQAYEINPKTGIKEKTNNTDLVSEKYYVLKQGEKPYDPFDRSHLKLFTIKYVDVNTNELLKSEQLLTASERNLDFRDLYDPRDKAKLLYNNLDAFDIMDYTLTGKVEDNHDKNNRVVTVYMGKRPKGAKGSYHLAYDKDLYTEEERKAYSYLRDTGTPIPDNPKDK

[16] = target: T4, Heat shock factor protein 1 (Mus musculus, UniProt P38532); test: enhancement of HSF1-driven luciferase signal – cell-based, NIH3T3, luminescence, dose retest, confirmation (AID 435004); format: functional;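 also: stress induced by proteasome inhibitor MG132 added 30 min after compound; luciferase reporter driven by HSF1 response element in NIH3T3 cells; actives raise luminescence as potentiators of the MG132 stress response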
T4 sequence (P38532 whole entry): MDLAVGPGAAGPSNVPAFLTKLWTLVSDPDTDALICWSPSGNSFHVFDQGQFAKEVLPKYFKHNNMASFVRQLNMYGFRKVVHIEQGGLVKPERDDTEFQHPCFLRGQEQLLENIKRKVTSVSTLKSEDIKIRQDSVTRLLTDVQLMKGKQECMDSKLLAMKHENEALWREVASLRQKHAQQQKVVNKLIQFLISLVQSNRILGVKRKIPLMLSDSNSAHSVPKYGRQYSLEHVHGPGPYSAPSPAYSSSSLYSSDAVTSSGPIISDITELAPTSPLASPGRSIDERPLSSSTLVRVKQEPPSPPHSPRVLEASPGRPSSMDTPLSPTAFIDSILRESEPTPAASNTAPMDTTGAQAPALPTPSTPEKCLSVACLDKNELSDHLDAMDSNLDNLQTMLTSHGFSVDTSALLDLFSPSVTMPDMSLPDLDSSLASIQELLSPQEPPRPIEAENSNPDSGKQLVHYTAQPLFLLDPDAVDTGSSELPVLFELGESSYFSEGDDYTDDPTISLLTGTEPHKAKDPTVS

[17] = viability of PTEN-deleted HCT116 cells – cell-based, HCT116 PTEN knockout, dose response (AID 1047); format: functional;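 also: HCT116 colon tumor cells with PTEN knocked out; cells exposed to compound for 60 hours before readout; potency for loss of cell viability measured by luminescence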
Cytochrome P450 1A2 = target: T5, Cytochrome P450 1A2 (Homo sapiens, UniProt P05177);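 also: PubChem cytochrome P450 panel assay, CYP1A2 panel member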
T5 sequence (P05177 whole entry): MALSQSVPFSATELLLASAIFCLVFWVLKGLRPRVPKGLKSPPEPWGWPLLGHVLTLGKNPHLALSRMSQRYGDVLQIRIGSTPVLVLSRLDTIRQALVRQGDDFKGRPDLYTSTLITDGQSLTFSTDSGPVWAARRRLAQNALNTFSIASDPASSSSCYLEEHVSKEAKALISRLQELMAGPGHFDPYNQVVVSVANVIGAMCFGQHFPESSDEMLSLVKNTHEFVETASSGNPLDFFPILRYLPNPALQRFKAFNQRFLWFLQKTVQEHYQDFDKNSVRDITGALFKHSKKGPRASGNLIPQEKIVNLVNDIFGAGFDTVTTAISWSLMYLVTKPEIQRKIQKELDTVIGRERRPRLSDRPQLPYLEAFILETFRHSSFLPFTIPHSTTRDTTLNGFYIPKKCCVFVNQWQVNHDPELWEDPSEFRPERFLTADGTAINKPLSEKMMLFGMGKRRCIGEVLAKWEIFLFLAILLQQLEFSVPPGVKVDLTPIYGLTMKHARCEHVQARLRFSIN

Cytochrome P450 2C19 = Cytochrome P450 2C19 (Homo sapiens, UniProt P33261); test: Cytochrome panel assay with activity outcomes. Panel member name: p450-cyp2c19 Compounds with AC50 equal or less than 10 uM are considered active; format: functional; conditions: read-out: AC50
Chain of Cytochrome P450 2C19 (P33261 whole entry): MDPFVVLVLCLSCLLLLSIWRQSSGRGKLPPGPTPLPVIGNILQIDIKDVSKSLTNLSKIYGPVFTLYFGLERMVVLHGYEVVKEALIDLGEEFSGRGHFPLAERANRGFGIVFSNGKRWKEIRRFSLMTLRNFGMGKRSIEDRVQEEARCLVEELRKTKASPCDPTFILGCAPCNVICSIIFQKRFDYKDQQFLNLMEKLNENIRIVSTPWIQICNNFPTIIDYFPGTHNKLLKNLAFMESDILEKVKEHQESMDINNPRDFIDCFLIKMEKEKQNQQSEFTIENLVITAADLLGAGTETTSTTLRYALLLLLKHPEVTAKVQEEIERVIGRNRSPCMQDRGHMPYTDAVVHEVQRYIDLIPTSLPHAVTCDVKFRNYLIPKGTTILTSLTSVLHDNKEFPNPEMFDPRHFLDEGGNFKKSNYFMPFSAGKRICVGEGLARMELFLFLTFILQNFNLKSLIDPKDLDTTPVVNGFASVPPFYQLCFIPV

Chain of Estrogen receptor beta (Q92731 whole entry): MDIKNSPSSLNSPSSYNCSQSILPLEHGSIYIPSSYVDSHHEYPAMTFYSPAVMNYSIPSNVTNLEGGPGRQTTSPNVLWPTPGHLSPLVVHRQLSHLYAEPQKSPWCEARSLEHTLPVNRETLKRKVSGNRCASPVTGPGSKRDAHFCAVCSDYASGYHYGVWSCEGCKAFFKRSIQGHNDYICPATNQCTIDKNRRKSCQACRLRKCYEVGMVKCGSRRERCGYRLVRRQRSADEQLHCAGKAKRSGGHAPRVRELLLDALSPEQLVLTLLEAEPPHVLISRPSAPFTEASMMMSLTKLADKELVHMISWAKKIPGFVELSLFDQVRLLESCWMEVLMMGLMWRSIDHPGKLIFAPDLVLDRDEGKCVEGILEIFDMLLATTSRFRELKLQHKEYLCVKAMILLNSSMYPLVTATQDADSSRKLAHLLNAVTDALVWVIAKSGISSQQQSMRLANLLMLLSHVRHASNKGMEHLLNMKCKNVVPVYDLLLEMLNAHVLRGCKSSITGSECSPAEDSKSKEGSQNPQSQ

Compound: COCCCNc1nc2c([nH]1)c(=O)[nH]c(=O)n2C
- IC50 (Estrogen receptor beta): > 50 µM (not active)

Compound: CCCNCC1COc2ccccc2O1 (stereo not drawn)
- IC50 (Estrogen receptor beta): 4.1 µM (active)

Compound: COc1ccc(-c2cc3nc(CCl)nc(O)c3s2)cc1
- CC50 [1]: 6.88 µM (active)
- AC50 [2]: 16.8 µM (active)
- EC50 [3]: 11.8 µM (active)
- EC50 [4]: 11 µM (active)
- AC50 [5]: 17.1 µM (active)
- AC50 [6]: 8.71 µM (active)
- AC50 [7]: 6.33 µM (active)

Compound: CCOC(=O)CN1CC23C=CC(O2)C(C(=O)Nc2cc(OC)ccc2OC)C3C1=O (stereo not drawn)
- IC50 (Estrogen receptor beta): > 50 µM (not active)

Compound: CCn1cc(/C=C(\NC(=O)c2ccccc2F)C(=O)NCCCn2ccnc2)c2ccccc21
- IC50 [8]: 14.5 µM (active)

Compound: CN1CCN(C2=C(Cl)C(=O)N(c3ccc(Cl)nc3)C2=O)CC1
- IC50 [9]: > 50 µM (inconclusive)

Compound: Cc1ccc(-c2cc(C(=O)N3CCN(c4ccc(O)cc4)CC3)c3ccccc3n2)cc1
- CC50 [10]: 100 µM (active)
- IC50 [11]: 88 µM (active)
- AC50 [12]: 6.6 µM (active)

Compound: O=C(Cn1ncc2c3ccccc3n(Cc3ccccc3)c2c1=O)NCCN1CCOCC1
- IC50 [8]: 11.2 µM (active)

Compound: O=C(OCc1nc(O)c2sccc2n1)c1ccc(Cl)s1
- IC50 [8]: 12.6 µM (active)

Compound: COC1C(OC(=O)/C=C/C=C/C=C/C=C/C(=O)O)CCC2(CO2)C1C1(C)OC1CC=C(C)C (stereo not drawn)
- GI50 (SN12K1): 16.1 µM (inactive)
- GI50 (P388/ADR): 13.2 µM (inactive)

Compound: O=C(C[C@@H]1C[C@H]2c3cc(NC(=O)Nc4ccccc4)ccc3O[C@H]2[C@H](CO)O1)NCc1cccnc1
- AC50 [13]: 1.64 µM (active)

Compound: OC(CNCc1ccco1)Cn1c2ccc(Br)cc2c2cc(Br)ccc21 (stereo not drawn)
- EC50 [14]: 8.59 µM (active)
- EC50 [15]: 4.22 µM (active)
- EC50 (Streptococcus): 13.7 µM (active)
- EC50 (Streptokinase A): > 150 µM (not active)
- EC50 [16]: > 260 µM (inactive)
- EC50 [17]: 9.13 µM (active)
- AC50 [12]: 3 µM (active)

Compound: COc1ccc(OC)c(S(=O)(=O)Nc2cccnc2)c1
- IC50 [9]: > 100 µM (not active)

Compound: O=c1cc(-c2ccccc2)c2c(O)cc(O)cc2o1
- IC50 [8]: 13.7 µM (active)

Compound: CN(C)CCCN1c2ccc(O)cc2Sc2ccc(Cl)cc21 [7-HYDROXYCHLORPROMAZINE]
- CC50 [10]: 84.5 µM (active)
- IC50 [11]: 11.6 µM (active)
- AC50 (Cytochrome P450 1A2): 0.631 µM (inconclusive)
- AC50 (Cytochrome P450 2C19): 0.794 µM (inconclusive)
